From article PMC11854949, “Discovery of Novel Pyridin-2-yl Urea Inhibitors Targeting ASK1 Kinase and Its Binding Mode by Absolute Protein–Ligand Binding Free Energy Calculations” (International Journal of Molecular Sciences, 2025)

Target: T1, recombinant human ASK1 protein (catalytic domain, residues 659–951) (Homo sapiens, UniProt Q99683)
T1 construct: The catalytic domain of ASK1 (encoding residues 659–951) was modified to include an N-terminal 6XHis tag; 6XHis (N); made in house; host or cells: E. coli Rosetta2 (DE3)
T1 sequence (Q99683 659-951): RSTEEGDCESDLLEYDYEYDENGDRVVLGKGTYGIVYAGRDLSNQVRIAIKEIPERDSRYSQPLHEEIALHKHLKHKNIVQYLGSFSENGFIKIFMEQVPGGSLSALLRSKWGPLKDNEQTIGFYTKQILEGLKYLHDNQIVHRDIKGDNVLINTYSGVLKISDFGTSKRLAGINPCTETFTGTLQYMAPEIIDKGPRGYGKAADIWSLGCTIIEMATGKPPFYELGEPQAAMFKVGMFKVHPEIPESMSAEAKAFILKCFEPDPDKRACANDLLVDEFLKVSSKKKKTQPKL
Assay: ASK1 enzyme inhibition assay (ADP-Glo)
Format: biochemical
Details: for ΔGexp: estimated from IC50 using ΔG = RTln(IC50), 298 K; for IC50: mean ± SEM, n = 3 experiments, 25 μM ATP, 0.1 μg/μL MBP, ADP-Glo
Method: The recombinant human ASK1 protein was expressed in E. coli Rosetta2 (DE3) in LB medium, containing 100 µg/mL ampicillin and 34 µg/mL chloramphenicol. A total of 2 mL overnight culture was diluted 100-fold into 200 mL LB and grown at 37 °C with shaking at 200 rpm until the OD600 reached 0.8. Subsequently, 0.5 mM IPTG was added, and protein expression was induced overnight at 20 °C.
The IC50 value for each inhibitor was determined using the ADP-Glo™ protocol. Inhibitors were prepared as a series of 1:1 serial dilutions (final concentration of 10 μM) in 40 mM HEPES buffer (pH 7.5) containing 20 mM MgCl2, 0.1 mg/mL BSA, 50 μM DTT and 5% DMSO.
The reaction was terminated by adding 5 μL of ADP-Glo reagent and incubated at room temperature for 40 min. Then, 10 μL of kinase detection reagent was added, and the mixture was incubated for an additional 30 min. Luminescence was measured using a VICTOR Nivo microplate reader (PerkinElmer, Waltham, MA, USA), and the concentration–response curve and half-maximal inhibitory concentration (IC50) values were obtained by fitting the data using GraphPad Prism (v.9.0) software.

Row | Structure (SMILES) | ΔGexp [kJ/mol] | IC50 [µM]
1 | CC(C)n1cnnc1-c1cccc(NC(=O)N2CCCC2)n1 [Compound 1] | -31 ± 0.042 | 3.63 ± 0.0722
2 | COc1ccc2c(c1)N(C(=O)Nc1cccc(-c3nncn3C(C)C)n1)CC2 [Compound 2] | -50.29 ± 0.46 | 0.00155 ± 0.00027
3 | CC(C)n1cnnc1-c1cccc(NC(=O)N2CCc3ccc(OC(F)(F)F)cc32)n1 [Compound 3] | -34.4 ± 0.042 | 0.954 ± 0.0215
4 | COc1ccc2c(c1)CCN2C(=O)Nc1cccc(-c2nncn2C(C)C)n1 [Compound 4] | -41.88 ± 0.29 | 0.0453 ± 0.00482
5 | CC(C)n1cnnc1-c1cccc(NC(=O)N2CCc3cc(C(F)(F)F)ccc32)n1 [Compound 5] | -37 ± 0.084 | 0.319 ± 0.0109
6 | CC(C)n1cnnc1-c1cccc(NC(=O)N2CCCc3ccccc32)n1 [Compound 6] | -48.7 ± 0.25 | 0.00292 ± 0.00028
7 | CC(C)n1cnnc1-c1cccc(NC(=O)N2CCc3ccccc3C2)n1 [Compound 7] | -30.2 ± 0.25 | 5.11 ± 0.507
